For series [1] the following is noted: pooled analysis of 14 phase I-III studies, various doses; cited from earlier work.
The target of the next series is T1, USP7core WT (Homo sapiens, UniProt Q93009).
T1 construct: 5 μM purified USP7core WT or active site cysteine mutant C223A were incubated
The series is described as follows: Covalent adduct formation with purified USP7core WT by LC-MS. To be noted: 5 μM USP7core WT, 100 μM compound, room temperature, 4 h. It is filed as binding. The procedure:
(§1) FIG. 4 provides data showing an example of the covalent irreversible nature of disclosed USP7 inhibitors. 5 μM purified USP7core WT or active site cysteine mutant C223A were incubated with 100 μM Compound 5 or DMSO at room temperature for 4 hrs, and then the protein/compound reaction products were mixed with equal volume of 0.1% Trifluoroacetic acid (TFA) before LC-MS injection. The samples were analyzed by reverse-phase liquid chromatography coupled to UV and MS detection (Agilent, 6220 Accurate-Mass Time-of-Flight (TOF) LC/MS). […] 5μM purified USP7core WT or C223A were incubated with 100 μM of an exemplary compound of the present invention (for example, Compound 5) or DMSO at room temperature for 4 h, and then the protein/compound reaction products were mixed with equal volume of 0.1% Trifluoroacetic acid (TFA). The samples were analyzed by reverse-phase liquid chromatography coupled to UV and MS detection (Agilent, 6220 Accurate-Mass Time-of-Flight (TOF) LC/MS).

The next series concerns the target USP7core C223A (Homo sapiens, UniProt Q93009, C223A). The series is described as follows: Covalent adduct formation with active site cysteine mutant USP7core C223A by LC-MS. In kind it is binding. To be noted: 5 μM USP7core C223A, 100 μM compound, room temperature, 4 h. As to the method: as §1
A further series addresses T2, USP7 (Homo sapiens, UniProt Q93009).
T2 construct: USP7 was immuno-precipitated from lysates and USP7 activity measured; endogenous in cells; host or cells: Jurkat cells
The series is described as follows: DUB activity of USP7 immunoprecipitated from treated Jurkat cells (Ub-EKL assay), pulse treatment and washout. In kind it is cell-based. As to conditions: washed; for USP7 catalytic activity returned: Jurkat cells exposed 2 hours, immunoprecipitated USP7. As to the method: FIG. 5A-FIG. 5C graphically illustrate examples of the disclosed USP7 inhibitors of the invention that are irreversible inhibitors. Jurkat cells were treated with 10 μM USP7i for indicated time period (FIG. 5A) or pulse treated for 2 h with 10 μM compound 5 (FIG. 5B), washed and incubated for the indicated time period followed by DUB activity measurement of immunoprecipitated USP7 as well as total cell lysate (FIG. 5C) using Ub-EKL assay as described previously (U.S. Pat. No. 8,680,139). A portion of the immunoprecipitated USP7 is separated on 10% SDS-PAGE and immunoblotted with anti-USP7 antibody to detect the level of USP7 protein (shown at the top of graphs in FIG. 5A and FIG. 5B). […] Jurkat cells were exposed to compound 5 for 2 hours and the compounds were washed away followed by incubation for various time points. Cells were harvested, lysed and their USP7 immunoprecipitated and washed with buffer. […] Jurkat cells were incubated with an exemplary compound of the present invention (e.g., compound 5), washed, and incubated for an additional 0-96 h. USP7 was immuno-precipitated from lysates and USP7 activity measured. […] Total cell deubiquitinase activity can be performed to determine selectivity of these compounds (FIG. 5C). These experiments delineate a simple, powerful biomarker for determining the dose-efficacy relationship in the pre-clinical/clinical evaluation of irreversible USP7 inhibitors. Inhibitors were also tested in cells for effects on various PD markers, including three major USP7 substrates, DNMT1, UHRF1 and HDM2 .

In a further series the test system is DNMT1, UHRF1 and HDM2. The series is described as follows: Immunoblot of USP7 substrates DNMT1, UHRF1 and HDM2 in Jurkat cells. As to conditions: 24 h treatment, immunoblot (FIG. 6). In kind it is cell-based. The procedure:
FIG. 6 graphically illustrates a decrease in USP7 oncogenic substrates DNMT1, UHRF1 and HDM2 levels in Jurkat cells treated with the USP7i compound 5. 20 μg total cell lysates from each samples were separated on 10% SDS-PAGE and immunoblotted with antibodies against DNMT1, UHRF1, HDM2 and Actin (loading control).
Jurkat cells were incubated with an exemplary compound of the present invention (e.g., compound 5), washed, and incubated for an additional 0-96 h. USP7 was immuno-precipitated from lysates and USP7 activity measured. […] Total cell deubiquitinase activity can be performed to determine selectivity of these compounds (FIG. 5C). These experiments delineate a simple, powerful biomarker for determining the dose-efficacy relationship in the pre-clinical/clinical evaluation of irreversible USP7 inhibitors. Inhibitors were also tested in cells for effects on various PD markers, including three major USP7 substrates, DNMT1, UHRF1 and HDM2 .

Entries after “also recorded” stand apart in the source; their conditions may differ.

T2 sequence (Q93009 whole entry): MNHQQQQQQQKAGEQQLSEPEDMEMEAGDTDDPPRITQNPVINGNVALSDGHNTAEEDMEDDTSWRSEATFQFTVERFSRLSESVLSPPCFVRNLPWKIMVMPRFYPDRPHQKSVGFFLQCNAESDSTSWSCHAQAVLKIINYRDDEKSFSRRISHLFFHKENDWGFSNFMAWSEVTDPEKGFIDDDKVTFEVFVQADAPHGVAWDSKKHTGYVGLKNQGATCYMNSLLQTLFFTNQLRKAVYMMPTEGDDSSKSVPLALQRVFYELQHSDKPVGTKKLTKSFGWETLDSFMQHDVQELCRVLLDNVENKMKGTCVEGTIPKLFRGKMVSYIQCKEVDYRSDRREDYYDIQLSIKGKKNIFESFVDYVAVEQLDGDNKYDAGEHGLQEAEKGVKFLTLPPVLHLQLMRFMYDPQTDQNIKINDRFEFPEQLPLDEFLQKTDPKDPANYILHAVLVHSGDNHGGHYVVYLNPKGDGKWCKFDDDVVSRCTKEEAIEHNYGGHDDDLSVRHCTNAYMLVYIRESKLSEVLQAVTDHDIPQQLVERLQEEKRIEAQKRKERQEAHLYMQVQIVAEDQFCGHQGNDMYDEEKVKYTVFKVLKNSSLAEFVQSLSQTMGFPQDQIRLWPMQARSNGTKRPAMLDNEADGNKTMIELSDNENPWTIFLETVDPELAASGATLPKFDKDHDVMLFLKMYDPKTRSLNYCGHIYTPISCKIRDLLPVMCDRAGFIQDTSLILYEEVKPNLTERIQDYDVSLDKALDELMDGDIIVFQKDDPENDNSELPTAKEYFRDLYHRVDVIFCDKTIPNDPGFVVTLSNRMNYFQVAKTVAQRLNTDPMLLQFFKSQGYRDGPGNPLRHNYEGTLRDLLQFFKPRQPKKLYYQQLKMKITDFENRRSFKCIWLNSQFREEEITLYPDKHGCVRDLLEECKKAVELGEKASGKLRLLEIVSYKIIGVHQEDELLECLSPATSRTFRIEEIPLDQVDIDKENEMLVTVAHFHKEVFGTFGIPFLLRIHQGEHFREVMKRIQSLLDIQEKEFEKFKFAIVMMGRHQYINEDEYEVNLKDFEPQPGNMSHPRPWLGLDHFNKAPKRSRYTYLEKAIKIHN
Chain of USP7core C223A (Q93009 214-521 C223A limits assumed): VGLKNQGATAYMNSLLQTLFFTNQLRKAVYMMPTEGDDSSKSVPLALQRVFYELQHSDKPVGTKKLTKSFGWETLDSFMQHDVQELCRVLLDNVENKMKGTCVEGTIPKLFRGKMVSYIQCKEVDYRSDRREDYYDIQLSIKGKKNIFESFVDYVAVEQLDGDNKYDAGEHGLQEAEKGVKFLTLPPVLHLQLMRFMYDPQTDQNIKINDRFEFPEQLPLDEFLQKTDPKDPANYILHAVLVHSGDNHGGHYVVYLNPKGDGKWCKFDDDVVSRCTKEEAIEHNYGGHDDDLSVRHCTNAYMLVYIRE
T1 sequence (Q93009 214-521 limits assumed): as the sequence (Q93009 214-521 C223A limits assumed) above, with A10C counted along it

Regarding ipilimumab, the “patients who experienced immune-related adverse effects” value in series [1] was 64%.
With `CS(=O)(=O)c1cccc(NC(=O)c2cc([N+](=O)[O-])c(Sc3c(Cl)cncc3Cl)s2)c1` [compound 5, 5-[(3,5-dichloropyridin-4-yl)sulfanyl]-N-[3-(methylsulfonyl)phenyl]-4-nitrothiophene-2-carboxamide], the “covalent adduct formation with wild type USP7 core” value at USP7core WT is “covalent irreversible adduct formation; also recorded: formed a covalent adduct”. The “covalent adduct formation with active site mutant USP7 core C223A” value on USP7core C223A is reported as “not in the active site cysteine mutant enzyme; also recorded: failed to form an adduct”. Further, the “USP7 catalytic activity returned” value at USP7 (48 hours after washout) is listed as “about 55%”. The “USP7 catalytic activity returned” value at USP7 (72 hours after washout) was found to be 68%. Also, the “inhibition of USP7 activity after pulse treatment” value on USP7 (Jurkat cells, 10 μM for 2 h, up to 72 h (FIG. 5B)) was “prolonged inhibition of USP7 activity, even after 72 h”. In the series on DNMT1, UHRF1 and HDM2, the DNMT1 level entry was “decrease”, the HDM2 level result was “decrease” and the UHRF1 level result was “decrease”.

Source of the values: patent US10292973B2, “Covalent irreversible inhibitors of USP7 as anti-cancer agents” (PROGENRA, INC., priority 2015, dated 2019).
